Measurements taken from patent publication US9822147B2, “Methods of treating ophthalmic diseases using NPR-B agonists” (priority 2009, dated 2017).
Numbered stars: 1 amine (or outer) side, 2 acyl side, 3 side chain; on linkers, the order of the positions; unused ones are H or OH. Square brackets hold non-standard residues; d marks the D form. Ends that are not written are not given here. Peptide text beside a SMILES is read from it. * marks the point of attachment. Sni = (S)-nipecotic acid, O=C([C@H]1CCCN([*:1])C1)[*:2]; Pro(4R-NH2) = N[C@H]1CN[C@H](C(=O)O)C1; dOrn(Me2) = CN(C)CCC[C@@H](N)C(=O)O; X2 = O=C([C@H]1CCCN([*:1])C1)[*:2]; X1 = CCCCCCCCN1CCC[C@H](C(=O)*)C1; dDap(Me2) = CN(C)C[C@@H](N)C(=O)O; Hyp = O=C(O)[C@@H]1C[C@@H](O)CN1; NHcycloheptyl = C1CCCC(N*)CC1; NMeL = CN[C@@H](CC(C)C)C(=O)O; Octanoyl = CCCCCCCC(=O)*; Occ = octanoic acid

How the values were obtained:
[1] = target: T1, NPR-B (Homo sapiens, UniProt P20594); experiment: NPR-B induced production of cyclic GMP in human glaucoma trabecular meshwork cells (GTM-3); format: cell-based; details: group by EC50 and Emax (CNP = 100%); Table 4; read-out: Activity (group), NPR-B activation assayed with GTM-3 cells
T1 construct: a functional assay using endogenously NPR-B expressing GTM-3 cells; endogenous in cells; host or cells: GTM-3 (human glaucoma trabecular meshwork cells)
T1 sequence (P20594 23-1047): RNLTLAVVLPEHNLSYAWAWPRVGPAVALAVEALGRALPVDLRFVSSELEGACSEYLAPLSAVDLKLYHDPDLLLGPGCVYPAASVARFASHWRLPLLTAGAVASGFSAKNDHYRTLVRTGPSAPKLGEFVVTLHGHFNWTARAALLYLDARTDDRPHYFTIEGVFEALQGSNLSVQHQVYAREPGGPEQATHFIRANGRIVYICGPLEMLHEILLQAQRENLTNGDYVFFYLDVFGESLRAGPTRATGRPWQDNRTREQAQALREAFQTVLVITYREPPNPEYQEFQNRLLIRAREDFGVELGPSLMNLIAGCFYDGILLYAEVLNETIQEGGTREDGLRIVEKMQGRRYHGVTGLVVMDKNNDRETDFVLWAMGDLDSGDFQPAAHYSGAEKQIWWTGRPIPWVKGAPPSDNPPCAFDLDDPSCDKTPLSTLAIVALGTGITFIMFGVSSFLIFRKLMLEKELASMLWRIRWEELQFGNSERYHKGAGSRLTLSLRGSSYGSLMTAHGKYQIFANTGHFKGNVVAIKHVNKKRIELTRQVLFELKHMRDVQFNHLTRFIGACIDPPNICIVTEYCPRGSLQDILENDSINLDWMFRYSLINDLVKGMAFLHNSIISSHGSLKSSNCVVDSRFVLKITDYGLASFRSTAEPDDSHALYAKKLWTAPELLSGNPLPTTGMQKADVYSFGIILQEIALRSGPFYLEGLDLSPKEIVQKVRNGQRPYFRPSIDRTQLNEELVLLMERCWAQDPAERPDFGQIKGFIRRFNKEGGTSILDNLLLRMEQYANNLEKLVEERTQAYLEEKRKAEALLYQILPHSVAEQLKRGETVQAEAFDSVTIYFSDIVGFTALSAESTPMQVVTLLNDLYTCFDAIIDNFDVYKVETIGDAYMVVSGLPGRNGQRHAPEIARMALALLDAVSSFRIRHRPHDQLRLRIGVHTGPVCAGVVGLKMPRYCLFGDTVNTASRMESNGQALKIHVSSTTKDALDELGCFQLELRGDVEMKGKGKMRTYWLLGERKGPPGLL

[2] = tested on: rabbit eyes; experiment: Efficacy in the rabbit: intraocular pressure (IOP) after a single topical ocular drop; format: in vivo; details: dose 300 ug topical ocular, single 30 μL drop, up to 4 hr post dose, 1% as suspension (+) or solution (++) per mark on label
Description: A single 30 μL drop of a test item formulation was administered to rabbit eyes (n=8 to 10).
Intraocular pressure (IOP) was assessed in each eye at 0 hr, just prior to dosing, and again hourly for up to 4 hr post dose. The efficacy of a given formulation was determined based on the difference between the pretreatment TOP readings at 0 hr and the post treatment readings. A maximum percent reduction in IOP greater than 15% was noted by the “+” symbol. A maximum IOP reduction of less than 15% was assigned the “−” symbol.

## CCCCCCCC(=O)N1CCC[C@H](C(=O)N[C@@H](Cc2ccccc2)C(=O)N[C@H](CC(C)C)C(=O)N[C@@H](CC(C)C)C(=O)N2C[C@H](O)C[C@H]2C(=O)N(C)[C@@H](CC(C)C)C(=O)N[C@@H](CC(=O)O)C(=O)N2CCC[C@H]2C(=O)NC2CCCCCC2)C1 [JAL-1512_02, Occ-Sni-Phe-leu-Leu-Hyp-Nml-Asp-Pro-Che] (Octanoyl-[X2]F[dL]L[Hyp][NMeL]DP-NHcycloheptyl)
[1]
  EC50: < 1000 nM
[2]
  RIOP, maximum percent reduction in IOP: + (+ IOP reduction >15%)

## CCCCCCCC(=O)N1CCC[C@H](C(=O)N[C@@H](Cc2ccccc2)C(=O)N[C@H](CC(C)C)C(=O)N[C@@H](CC(C)C)C(=O)N2C[C@H](N)C[C@H]2C(=O)N(C)[C@@H](CC(C)C)C(=O)N[C@H](C(=O)N[C@@H](CCCNC(=N)N)C(=O)NC2CCCCCC2)C(C)C)C1 [JAL-1729, Occ-Sni-Phe-leu-Leu-Tap-Nml-Val-Arg-Che] (Octanoyl-[X2]F[dL]L[Pro(4R-NH2)][NMeL]VR-NHcycloheptyl)
[1]
  EC50: < 1000 nM
[2]
  RIOP, maximum percent reduction in IOP: + (+ IOP reduction >15%)

## CCCCCCCC(=O)N[C@H](C)C(=O)N[C@@H](Cc1ccccc1)C(=O)N[C@H](CCCCN)C(=O)N[C@@H](CC(C)C)C(=O)N1C[C@H](O)C[C@H]1C(=O)N(C)[C@@H](CC(C)C)C(=O)N[C@@H](CC(=O)O)C(=O)N[C@@H](CCCNC(=N)N)C(=O)N[C@H](C(N)=O)[C@@H](C)CC [JAL-1060, Occ-ala-Phe-lys-Leu-Hyp-Nml-Asp-Arg-Ile-NH2] (HELM PEPTIDE1{[CCCCCCCC(=O)[*:2]].[dA].F.[dK].L.[Hyp].[meL].D.R.I.[am]}$$$$V2.0)
[1]
  EC50: < 1000 nM
[2]
  RIOP, maximum percent reduction in IOP: + (+ IOP reduction >15%)

## CCCCCCCC(=O)N[C@H](C)C(=O)N(C)[C@@H](Cc1ccccc1)C(=O)N[C@H](CCCNC(=N)N)C(=O)N[C@@H](CC(C)C)C(=O)N1C[C@H](O)C[C@H]1C(=O)N(C)[C@@H](CC(C)C)C(=O)N[C@@H](CC(=O)O)C(=O)N[C@@H](CCCNC(=N)N)C(=O)N[C@H](C(N)=O)[C@@H](C)CC [JAL-1085, Occ-ala-Nmf-arg-Leu-Hyp-Nml-Asp-Arg-Ile-NH2] (HELM PEPTIDE1{[CCCCCCCC(=O)[*:2]].[dA].[meF].[dR].L.[Hyp].[meL].D.R.I.[am]}$$$$V2.0)
[1]
  EC50: < 1000 nM
[2]
  RIOP, maximum percent reduction in IOP: + (+ IOP reduction >15%)

## Occ-Sni-Phe-dap(Me2)-Leu-Hyp-Nml-Val-Arg-Ile-NH2 ([Occ][Sni]FXL[Hyp][NMeL]VRI-NH2; not fully specified (residue 4); printed as Occ-Sni-Phe-dap(Me2)-Leu-Hyp-Nml-Val-Arg-Ile-NH2) [JAL-1400]
[2]
  RIOP, maximum percent reduction in IOP: + (+ IOP reduction >15%)

## CCCCCCCC(=O)N1CCC[C@H](C(=O)N[C@@H](Cc2ccccc2)C(=O)N[C@H](CN(C)C)C(=O)N[C@@H](CC(C)C)C(=O)N2C[C@H](N)C[C@H]2C(=O)N(C)[C@@H](CC(C)C)C(=O)N[C@@H](CC(=O)O)C(=O)N[C@@H](CCCNC(=N)N)C(=O)N[C@H](C(N)=O)[C@@H](C)CC)C1 [JAL-1325, Occ-Sni-Phe-dap(Me2)-Leu-Tap-Nml-Asp-Arg-Ile-NH2] (Octanoyl-[X2]F[dDap(Me2)]L[Pro(4R-NH2)][NMeL]DRI-NH2)
[1]
  EC50: < 1000 nM
[2]
  RIOP, maximum percent reduction in IOP: + (+ IOP reduction >15%)

## CCCCCCCC(=O)N1CCC[C@H](C(=O)N[C@@H](Cc2ccccc2)C(=O)N[C@H](CN(C)C)C(=O)N[C@@H](CC(C)C)C(=O)N2C[C@H](O)C[C@H]2C(=O)N(C)[C@@H](CC(C)C)C(=O)N[C@@H](CC(=O)O)C(=O)N[C@@H](CCCNC(=N)N)C(=O)N[C@H](C(N)=O)[C@@H](C)CC)C1 [JAL-1287, Occ-Sni-Phe-dap(Me2)-Leu-Hyp-Nml-Asp-Arg-Ile-NH2] (Octanoyl-[X2]F[dDap(Me2)]L[Hyp][NMeL]DRI-NH2)
[1]
  EC50: < 1000 nM
[2]
  RIOP, maximum percent reduction in IOP: + (+ IOP reduction >15%)

## CCCCCCCC(=O)N[C@H](C)C(=O)N[C@@H](Cc1ccccc1)C(=O)N[C@H](CCCNC(=N)N)C(=O)N[C@@H](CC(C)C)C(=O)N1C[C@H](O)C[C@H]1C(=O)N(C)[C@@H](CC(C)C)C(=O)N[C@@H](CC(=O)O)C(=O)N[C@@H](CCCNC(=N)N)C(=O)N[C@H](C(N)=O)[C@@H](C)CC [JAL-1086, Occ-ala-Phe-arg-Leu-Hyp-Nml-Asp-Arg-Ile-NH2] (HELM PEPTIDE1{[CCCCCCCC(=O)[*:2]].[dA].F.[dR].L.[Hyp].[meL].D.R.I.[am]}$$$$V2.0)
[1]
  EC50: < 1000 nM
[2]
  RIOP, maximum percent reduction in IOP: + (+ IOP reduction >15%)

## CCCCCCCC(=O)N[C@H](C)C(=O)N[C@@H](Cc1ccccc1)C(=O)N[C@H](CCCNC(=N)N)C(=O)N[C@@H](CC(C)C)C(=O)N1C[C@H](O)C[C@H]1C(=O)N[C@@H](CC(C)C)C(=O)N[C@@H](CC(=O)O)C(=O)N[C@@H](CCCNC(=N)N)C(=O)N[C@H](C(N)=O)[C@@H](C)CC [JAL-1047, Occ-ala-Phe-arg-Leu-Hyp-Leu-Asp-Arg-Ile-NH2] (HELM PEPTIDE1{[CCCCCCCC(=O)[*:2]].[dA].F.[dR].L.[Hyp].L.D.R.I.[am]}$$$$V2.0)
[1]
  EC50: < 1000 nM
[2]
  RIOP, maximum percent reduction in IOP: + (+ IOP reduction >15%)

## CCCCCCCC(=O)N1CCC[C@H](C(=O)N[C@@H](Cc2ccccc2)C(=O)N[C@H](CCCN(C)C)C(=O)N[C@@H](CC(C)C)C(=O)N2C[C@H](O)C[C@H]2C(=O)N(C)[C@@H](CC(C)C)C(=O)N[C@@H](CC(=O)O)C(=O)N[C@@H](CCCNC(=N)N)C(=O)N[C@H](C(N)=O)[C@@H](C)CC)C1 [JAL-1289, Occ-Sni-Phe-orn(Me2)-Leu-Hyp-Nml-Asp-Arg-Ile-NH2] (Octanoyl-[X2]F[dOrn(Me2)]L[Hyp][NMeL]DRI-NH2)
[1]
  EC50: < 1000 nM
[2]
  RIOP, maximum percent reduction in IOP: + (+ IOP reduction >15%)

## CCCCCCCC(=O)N1CCC[C@H](C(=O)N[C@@H](Cc2ccccc2)C(=O)N[C@H](CC(C)C)C(=O)N[C@@H](CC(C)C)C(=O)N2C[C@H](N)C[C@H]2C(=O)N(C)[C@@H](CC(C)C)C(=O)N[C@@H](CC(=O)O)C(=O)N[C@@H](CCCNC(=N)N)C(=O)N[C@H](C(N)=O)[C@@H](C)CC)C1 [JAL-1295, Occ-Sni-Phe-leu-Leu-Tap-Nml-Asp-Arg-Ile-NH2] (Octanoyl-[X2]F[dL]L[Pro(4R-NH2)][NMeL]DRI-NH2)
[1]
  EC50: < 1000 nM
[2]
  RIOP, maximum percent reduction in IOP: + (+ IOP reduction >15%)

## CCCCCCCCN1CCC[C@H](C(=O)N[C@@H](Cc2ccccc2)C(=O)N[C@H](CN(C)C)C(=O)N[C@@H](CC(C)C)C(=O)N2C[C@H](O)C[C@H]2C(=O)N(C)[C@@H](CC(C)C)C(=O)N[C@@H](CC(=O)O)C(=O)N[C@@H](CCCNC(=N)N)C(=O)N[C@H](C(N)=O)[C@@H](C)CC)C1 [JAL-1429, Oct-Sni-Phe-dap(Me2)-Leu-Hyp-Nml-Asp-Arg-Ile-NH2] (HELM PEPTIDE1{[CCCCCCCCN1CCC[C@H](C(=O)[*:2])C1].F.[CN(C)C[C@@H](N[*:1])C(=O)[*:2]].L.[Hyp].[meL].D.R.I.[am]}$$$$V2.0)
[2]
  RIOP, maximum percent reduction in IOP: + (+ IOP reduction >15%)

## CCCCCCCCN1CCC[C@H](C(=O)N[C@@H](Cc2ccccc2)C(=O)N[C@H](CN(C)C)C(=O)N[C@@H](CC(C)C)C(=O)N2C[C@H](N)C[C@H]2C(=O)N(C)[C@@H](CC(C)C)C(=O)N[C@@H](CC(=O)O)C(=O)N[C@@H](CCCNC(=N)N)C(=O)N[C@H](C(N)=O)[C@@H](C)CC)C1 [JAL-1369, Oct-Sni-Phe-dap(Me2)-Leu-Tap-Nml-Asp-Arg-Ile-NH2] (X1-F[dDap(Me2)]L[Pro(4R-NH2)][NMeL]DRI-NH2)
[2]
  RIOP, maximum percent reduction in IOP: + (+ IOP reduction >15%)

## CCCCCCCC(=O)N1CCC[C@H](C(=O)N(C)[C@@H](Cc2ccccc2)C(=O)N[C@H](CC(C)C)C(=O)N[C@@H](CC(C)C)C(=O)N2C[C@H](O)C[C@H]2C(=O)N(C)[C@@H](CC(C)C)C(=O)N[C@@H](CC(=O)O)C(=O)N[C@@H](CCCNC(=N)N)C(=O)N[C@H](C(N)=O)[C@@H](C)CC)C1 [JAL-1573, Occ-Sni-Nmf-leu-Leu-Hyp-Nml-Asp-Arg-Ile-NH2] (HELM PEPTIDE1{[CCCCCCCC(=O)[*:2]].[O=C([C@H]1CCCN([*:1])C1)[*:2]].[meF].[dL].L.[Hyp].[meL].D.R.I.[am]}$$$$V2.0)
[1]
  EC50: < 1000 nM
